How the values were obtained:
[1] = target: 3',5'-cyclic-AMP phosphodiesterase 4B (Homo sapiens, UniProt Q07343); assay: Inhibition of human U937 cells-derived PDE4B using [3H]-cAMP as substrate measured after 30 mins
[2] = Inhibition of PDE4 in human PBMC assessed as reduction in LPS-stimulated TNFalpha release preincubated for 30 mins followed by LPS stimulation for 18 hrs by TR-FRET assay; type: cell-based
[3] = target: 3',5'-cyclic-AMP phosphodiesterase 4D (Homo sapiens, UniProt Q08499); assay: Inhibition of human U937 cells-derived PDE4D using [3H]-cAMP as substrate measured after 30 mins
3',5'-cyclic-AMP phosphodiesterase 4D, sequence (Q08499 whole entry): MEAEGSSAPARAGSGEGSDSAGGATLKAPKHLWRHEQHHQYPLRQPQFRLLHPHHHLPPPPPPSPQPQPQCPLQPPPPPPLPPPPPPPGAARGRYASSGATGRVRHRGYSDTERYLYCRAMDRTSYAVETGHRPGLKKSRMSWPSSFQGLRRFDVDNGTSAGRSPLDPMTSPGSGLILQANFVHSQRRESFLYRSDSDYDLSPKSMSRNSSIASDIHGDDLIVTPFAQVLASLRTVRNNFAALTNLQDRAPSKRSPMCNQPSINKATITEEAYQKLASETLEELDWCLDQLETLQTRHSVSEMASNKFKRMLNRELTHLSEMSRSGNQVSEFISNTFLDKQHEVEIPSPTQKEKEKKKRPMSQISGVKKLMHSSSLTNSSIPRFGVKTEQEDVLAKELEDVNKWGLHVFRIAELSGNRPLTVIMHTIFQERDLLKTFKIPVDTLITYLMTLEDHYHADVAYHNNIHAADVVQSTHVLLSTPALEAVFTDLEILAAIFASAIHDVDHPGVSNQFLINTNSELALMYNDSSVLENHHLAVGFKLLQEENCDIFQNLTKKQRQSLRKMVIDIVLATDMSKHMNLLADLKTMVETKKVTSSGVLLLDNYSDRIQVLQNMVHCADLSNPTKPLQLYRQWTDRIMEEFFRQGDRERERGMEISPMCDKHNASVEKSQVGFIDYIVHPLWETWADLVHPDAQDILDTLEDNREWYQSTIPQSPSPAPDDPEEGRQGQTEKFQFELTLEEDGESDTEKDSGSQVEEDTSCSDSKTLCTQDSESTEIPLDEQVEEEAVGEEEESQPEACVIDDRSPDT

Mus musculus = assay: Anti-inflammatory activity in Swiss albino mouse model of sepsis assessed as inhibition of LPS-induced TNFalpha release at 10 mg/kg, po; type: functional
Rattus norvegicus = assay: Anti-inflammatory activity in Sprague-Dawley rat model of LPS-induced asthma/COPD assessed as inhibition of neutrophilia in BALF at 10 mg/kg, po; type: functional

3',5'-cyclic-AMP phosphodiesterase 4B, sequence (Q07343 whole entry): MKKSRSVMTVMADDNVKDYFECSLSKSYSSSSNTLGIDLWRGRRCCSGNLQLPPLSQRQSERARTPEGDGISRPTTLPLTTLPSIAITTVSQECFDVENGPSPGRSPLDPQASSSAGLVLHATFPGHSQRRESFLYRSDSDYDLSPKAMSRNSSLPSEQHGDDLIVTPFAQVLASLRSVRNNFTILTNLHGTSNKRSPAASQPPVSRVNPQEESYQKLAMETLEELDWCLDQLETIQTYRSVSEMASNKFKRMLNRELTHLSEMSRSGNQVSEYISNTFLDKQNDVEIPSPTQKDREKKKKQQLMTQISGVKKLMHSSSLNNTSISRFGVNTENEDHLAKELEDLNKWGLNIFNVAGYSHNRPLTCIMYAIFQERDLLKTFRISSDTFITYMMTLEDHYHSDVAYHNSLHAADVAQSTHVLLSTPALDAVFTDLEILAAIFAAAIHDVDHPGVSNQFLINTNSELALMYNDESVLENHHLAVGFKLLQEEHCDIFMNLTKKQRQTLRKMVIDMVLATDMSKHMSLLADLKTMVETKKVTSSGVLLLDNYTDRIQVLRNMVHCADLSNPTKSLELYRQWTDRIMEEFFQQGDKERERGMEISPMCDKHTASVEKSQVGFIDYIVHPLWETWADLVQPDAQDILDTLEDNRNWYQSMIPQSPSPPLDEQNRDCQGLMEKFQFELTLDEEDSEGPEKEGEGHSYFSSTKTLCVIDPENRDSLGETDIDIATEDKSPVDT

IC50 [1] [µM] | IC50 [2] [µM] | IC50 [3] [µM] | SMILES | inhibition in vivo at 10 mg/kg (Mus musculus) [%] | inhibition in vivo at 10 mg/kg (Rattus norvegicus) [%]
52.4 | 112 |  | Cc1cc(C)n(C(=O)c2ccc(-c3ccccc3Cl)o2)n1 |  | 
7.2 | 24.3 | 49.3 | Cc1cc(C)n(C(=O)c2ccc(-c3ccc(F)cc3)o2)n1 |  | 
45.3 | 98.2 |  | Cc1cc(C)n(C(=O)c2ccc(-c3ccccc3F)o2)n1 |  | 
20.2 | 70.8 |  | Cc1cc(C)n(C(=O)c2ccc(-c3cccc(F)c3)o2)n1 |  | 
8.4 | 37.1 | 52.9 | Cc1ccc(-c2ccc(C(=O)n3nc(C)cc3C)o2)cc1 |  | 
14.5 | 88.7 | 88.2 | Cc1cc(C)n(C(=O)c2ccc(-c3c(F)cccc3F)o2)n1 |  | 
51.1 | 154 |  | Cc1cc(C)n(C(=O)c2ccc(-c3ccc(Br)cc3)o2)n1 |  | 
3.9 | 25.1 | 26.4 | Cc1cc(C)n(C(=O)c2ccc(-c3ccc(Cl)cc3)o2)n1 |  | 
62.7 | 168 |  | Cc1cc(C)n(C(=O)c2ccc(-c3ccccc3[N+](=O)[O-])o2)n1 |  | 
35.9 | 69.3 |  | Cc1cc(C)n(C(=O)c2ccc(-c3cccc([N+](=O)[O-])c3)o2)n1 |  | 
15.4 | 41.7 | 87.3 | Cc1cc(C)n(C(=O)c2ccc(-c3ccc([N+](=O)[O-])cc3)o2)n1 |  | 
20.9 | 58.4 |  | Cc1cc(C)n(C(=O)c2ccc(-c3cccc(Cl)c3)o2)n1 |  | 
1.7 | 10.4 | 9.6 | COc1ccc(-c2ccc(C(=O)n3nc(C)cc3C)o2)cc1 | 43.1 | 36.5
70.3 | 178 |  | Cc1cc(C)n(C(=O)c2ccc(-c3ccccc3)o2)n1 |  | 
3.2 | 19.2 | 19.6 | Cc1cc(C)n(C(=O)c2ccc(-c3ccc(F)cc3F)o2)n1 | 29.6 | 24.2
 | 16.5 |  | COc1ccc(C2CNC(=O)C2)cc1OC1CCCC1 (centres undefined) [ROLIPRAM] | 41.7 | 32.8
